Results taken from patent US9233964B2, “Sulfamide piperazine derivatives as protein tyrosine kinase inhibitors and pharmaceutical use therof” (LEO PHARMA A/S, priority 2011, dated 2016).

Legend:
Assay type in all cases: biochemical
JAK1 = target: T1, JAK1 (Homo sapiens, UniProt P23458); experiment: JAK kinase assay (HTRF, phosphorylation of synthetic peptide), JAK1; settings: catalytic domain, ATP at Km (7 μM); read-out: JAK1 kinase inhibitory activity (EC50)
T1 construct: JAK1 (aa 850-1154) and TYK2 (aa 871-1187) are expressed with an N-terminally fused GST-tag; GST (N); purchased Carna Biosciences, Inc; host or cells: baculovirus expression system
How it was run: (§1)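 Catalytic-domain human JAK1 (GST-tagged, aa 850-1154) or His-tagged JAK2, baculovirus-expressed, phosphorylated 1 µM biotinylated TK peptide at Km ATP (JAK1 7 µM, 10 mM MgCl2, 50 nM SEB; JAK2 4 µM, 5 mM MgCl2) in pH 7.0 Hepes, 20-30 min RT. EDTA stop; overnight streptavidin-XL665/cryptate HTRF read.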

JAK2 = target: T2, JAK2 (Homo sapiens, UniProt O60674); experiment: JAK kinase assay (HTRF, phosphorylation of synthetic peptide), JAK2; settings: catalytic domain, ATP at Km (4 μM); read-out: JAK2 kinase inhibitory activity (EC50)
T2 construct: All four purified enzymes contain only the catalytic domain; His (N); purchased Carna Biosciences, Inc; host or cells: baculovirus expression system
How it was run: as §1

TYK2 = target: T3, TYK2 (Homo sapiens, UniProt P29597); experiment: JAK kinase assay (HTRF, phosphorylation of synthetic peptide), TYK2; settings: catalytic domain, ATP at Km (13 μM); read-out: TYK2 kinase inhibitory activity (EC50)
T3 construct: JAK1 (aa 850-1154) and TYK2 (aa 871-1187) are expressed with an N-terminally fused GST-tag; GST (N); purchased Carna Biosciences, Inc; host or cells: baculovirus expression system
T3 sequence (P29597 871-1187): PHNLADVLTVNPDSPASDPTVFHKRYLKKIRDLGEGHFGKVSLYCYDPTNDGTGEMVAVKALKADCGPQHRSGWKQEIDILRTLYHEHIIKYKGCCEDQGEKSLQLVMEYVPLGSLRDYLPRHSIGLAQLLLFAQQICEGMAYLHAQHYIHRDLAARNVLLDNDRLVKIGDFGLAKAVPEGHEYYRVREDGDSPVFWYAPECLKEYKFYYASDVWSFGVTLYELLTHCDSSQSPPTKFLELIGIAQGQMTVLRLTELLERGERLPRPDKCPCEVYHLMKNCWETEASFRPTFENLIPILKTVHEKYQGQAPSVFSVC
How it was run: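 1 µM biotinylated TK peptide at Km ATP in pH 7.0 Hepes, 20-30 min RT. EDTA stop; overnight streptavidin-XL665/cryptate HTRF read.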

JAK3 = target: T4, JAK3 (Homo sapiens, UniProt P52333); experiment: JAK kinase assay (HTRF, phosphorylation of synthetic peptide), JAK3; settings: catalytic domain, ATP at Km (2 μM); read-out: JAK3 kinase inhibitory activity (EC50)
T4 construct: All four purified enzymes contain only the catalytic domain; His (N); purchased Carna Biosciences, Inc; host or cells: baculovirus expression system
T4 sequence (P52333 822-1111 limits assumed): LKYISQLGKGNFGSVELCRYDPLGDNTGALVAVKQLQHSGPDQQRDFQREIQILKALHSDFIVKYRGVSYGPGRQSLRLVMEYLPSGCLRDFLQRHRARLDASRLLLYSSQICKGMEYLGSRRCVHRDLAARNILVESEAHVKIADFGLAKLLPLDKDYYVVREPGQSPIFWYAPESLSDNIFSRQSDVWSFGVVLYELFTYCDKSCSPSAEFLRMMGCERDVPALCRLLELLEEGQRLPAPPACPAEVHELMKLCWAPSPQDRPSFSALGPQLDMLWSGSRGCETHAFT

T2 sequence (O60674 849-1124 limits assumed): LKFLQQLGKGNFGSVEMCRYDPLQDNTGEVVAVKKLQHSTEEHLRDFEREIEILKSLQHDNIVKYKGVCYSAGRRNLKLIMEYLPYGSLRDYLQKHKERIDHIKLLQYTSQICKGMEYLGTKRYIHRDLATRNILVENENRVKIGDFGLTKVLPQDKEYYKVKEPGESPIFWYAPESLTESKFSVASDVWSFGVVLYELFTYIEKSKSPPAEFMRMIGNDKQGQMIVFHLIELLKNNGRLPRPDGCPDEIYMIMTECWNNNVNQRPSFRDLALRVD
T1 sequence (P23458 850-1154): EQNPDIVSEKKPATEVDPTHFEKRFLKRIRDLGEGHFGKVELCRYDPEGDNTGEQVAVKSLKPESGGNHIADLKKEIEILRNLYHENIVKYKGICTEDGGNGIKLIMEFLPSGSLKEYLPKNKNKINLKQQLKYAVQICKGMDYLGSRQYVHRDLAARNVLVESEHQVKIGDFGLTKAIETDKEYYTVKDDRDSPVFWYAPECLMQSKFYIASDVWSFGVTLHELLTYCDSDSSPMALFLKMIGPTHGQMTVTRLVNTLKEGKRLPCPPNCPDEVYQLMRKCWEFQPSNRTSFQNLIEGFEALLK

Row | Compound | EC50 (JAK1) [nM] | EC50 (JAK2) [nM] | EC50 (TYK2) [nM] | EC50 (JAK3) [nM]
1 | CN(c1ccccc1)S(=O)(=O)N1CCN(c2ncnc3[nH]ccc23)CC12CC2 [Example 40, 7-(7H-Pyrrolo[2,3-d]pyrimidin-4-yl)-4,7-diaza-spiro[2.5]octane-4-sulfonic acid methyl-phenyl-amide] | < 100 | < 100 | 100 to 500 | 100 to 500
2 | CC(O)CC(=O)N1CCC(CN(C)S(=O)(=O)N2CCN(c3ncnc4[nH]ccc34)CC23CC3)C1 (stereo not drawn) [Example 124, N-[[1-(3-hydroxybutanoyl)pyrrolidin-3-yl]methyl]-N-methyl-5-(7H-pyrrolo[2,3-d]pyrimidin-4-yl)-5,8-diazaspiro[2.5]octane-8-sulfonamide] | < 100 | < 100 | > 500 | 100 to 500
3 | N#CCN(CCO)S(=O)(=O)N1CCN(c2ncnc3[nH]ccc23)CC12CC2 [Example 108, N-(cyanomethyl)-N-(2-hydroxyethyl)-5-(7H-pyrrolo[2,3-d]pyrimidin-4-yl)-5,8-diazaspiro[2.5]octane-8-sulfonamide] | < 100 | < 100 | 100 to 500 | < 100
4 | O=S1(=O)CCC(CNS(=O)(=O)N2CCN(c3ncnc4[nH]ccc34)CC23CC3)C1 (stereo not drawn) [Int 37] | < 100 | < 100 | > 500 | < 100
5 | CC(C)CN(CCc1ccccc1)S(=O)(=O)N1CCN(c2ncnc3[nH]ccc23)CC12CC2 [Example 6, 7-(7H-Pyrrolo[2,3-d]pyrimidin-4-yl)-4,7-diaza-spiro[2.5]octane-4-sulfonic acid isobutyl-phenethyl-amide] | 100 to 500 | < 100 | > 500 | 100 to 500
6 | N#CCCCNS(=O)(=O)N1CCN(c2ncnc3[nH]ccc23)CC12CC2 [Example 55, 7-(7H-Pyrrolo[2,3-d]pyrimidin-4-yl)-4,7-diaza-spiro[2.5]octane-4-sulfonic acid (3-cyano-propyl)-amide] | < 100 | < 100 | 100 to 500 | < 100
7 | N#CCCCN(CCCC#N)S(=O)(=O)N1CCN(c2ncnc3[nH]ccc23)CC12CC2 [Example 56, 7-(7H-Pyrrolo[2,3-d]pyrimidin-4-yl)-4,7-diaza-spiro[2.5]octane-4-sulfonic acid bis-(3-cyano-propyl)-amide] | < 100 | < 100 | 100 to 500 | < 100
8 | CCCS(=O)(=O)N1CCC(CN(C)S(=O)(=O)N2CCN(c3ncnc4[nH]ccc34)CC23CC3)C1 (stereo not drawn) [Example 118, N-methyl-N-[(1-propylsulfonylpyrrolidin-3-yl)methyl]-5-(7H-pyrrolo[2,3-d]pyrimidin-4-yl)-5,8-diazaspiro[2.5]octane-8-sulfonamide] | < 100 | < 100 | 100 to 500 | < 100
9 | CCCC(C)NS(=O)(=O)N1CCN(c2ncnc3[nH]ccc23)CC12CC2 (stereo not drawn) [Example 143, N-(1-methylbutyl)-5-(7H-pyrrolo[2,3-d]pyrimidin-4-yl)-5,8-diazaspiro[2.5]octane-8-sulfonamide] | < 100 | < 100 | > 500 | 100 to 500
10 | CN(CC1CC(F)(F)C1)S(=O)(=O)N1CCN(c2ncnc3[nH]ccc23)CC12CC2 [Example 85, N-[(3,3-difluorocyclobutyl)methyl]-N-methyl-5-(7H-pyrrolo[2,3-d]pyrimidin-4-yl)-5,8-diazaspiro[2.5]octane-8-sulfonamide] | < 100 | < 100 | < 100 | < 100

The next lines start with the values.

Row | EC50 (JAK1) [nM] | EC50 (JAK2) [nM] | EC50 (TYK2) [nM] | EC50 (JAK3) [nM] | Compound
11 | < 100 | < 100 | > 500 | 100 to 500 | CN(CC1CCCN(S(=O)(=O)CCCC#N)C1)S(=O)(=O)N1CCN(c2ncnc3[nH]ccc23)CC12CC2 (stereo not drawn) [Example 161, N-[[1-(3-cyanopropylsulfonyl)-3-piperidyl]methyl]-N-methyl-5-(7H-pyrrolo[2,3-d]pyrimidin-4-yl)-5,8-diazaspiro[2.5]octane-8-sulfonamide]
12 | < 100 | < 100 | 100 to 500 | < 100 | O=S(=O)(NCC1CCC(F)(F)CC1)N1CCN(c2ncnc3[nH]ccc23)CC12CC2 [Example 148, N-[(4,4-difluorocyclohexyl)methyl]-5-(7H-pyrrolo[2,3-d]pyrimidin-4-yl)-5,8-diazaspiro[2.5]octane-8-sulfonamide]
13 | < 100 | < 100 | 100 to 500 | < 100 | Cc1noc(C)c1CCN(C)S(=O)(=O)N1CCN(c2ncnc3[nH]ccc23)CC12CC2 [Example 32, 7-(7H-Pyrrolo[2,3-d]pyrimidin-4-yl)-4,7-diaza-spiro[2.5]octane-4-sulfonic acid [2-(3,5-dimethyl-isoxazol-4-yl)-ethyl]-methyl-amide]
14 | < 100 | < 100 | < 100 | < 100 | CN(CC12C3C4C1C1C2C3C41C#N)S(=O)(=O)N1CCN(c2ncnc3[nH]ccc23)CC12CC2 (stereo not drawn) [Example 177, N-[(4-cyanocuban-1-yl)methyl]-N-methyl-5-(7H-pyrrolo[2,3-d]pyrimidin-4-yl)-5,8-diazaspiro[2.5]octane-8-sulfonamide]
15 | < 100 | < 100 | 100 to 500 | < 100 | CN(Cc1ccc(C#N)cc1)S(=O)(=O)N1CCN(c2ncnc3[nH]ccc23)CC12CC2 [Example 37, 7-(7H-Pyrrolo[2,3-d]pyrimidin-4-yl)-4,7-diaza-spiro[2.5]octane-4-sulfonic acid (4-cyano-benzyl)-methyl-amide]
16 | < 100 | < 100 | > 500 | 100 to 500 | CC#CCN(CCc1ccccc1)S(=O)(=O)N1CCN(c2ncnc3[nH]ccc23)CC12CC2 [Example 23, 7-(7H-Pyrrolo[2,3-d]pyrimidin-4-yl)-4,7-diaza-spiro[2.5]octane-4-sulfonic acid but-2-ynyl-phenethyl-amide]
17 | < 100 | < 100 | > 500 | 100 to 500 | CN(C1CNC1)S(=O)(=O)N1CCN(c2ncnc3[nH]ccc23)CC12CC2 [Int 50]
18 | < 100 | < 100 | 100 to 500 | < 100 | CN(CCn1cccn1)S(=O)(=O)N1CCN(c2ncnc3[nH]ccc23)CC12CC2 [Example 66, N-methyl-N-(2-pyrazol-1-ylethyl)-5-(7H-pyrrolo[2,3-d]pyrimidin-4-yl)-5,8-diazaspiro[2.5]octane-8-sulfonamide]
19 | < 100 | < 100 | > 500 | 100 to 500 | CCC(=O)CN(CCc1ccccc1)S(=O)(=O)N1CCN(c2ncnc3[nH]ccc23)CC12CC2 [Example 4, 7-(7H-Pyrrolo[2,3-d]pyrimidin-4-yl)-4,7-diaza-spiro[2.5]octane-4-sulfonic acid (2-oxo-butyl)-phenethyl-amide]
20 | < 100 | < 100 | < 100 | 100 to 500 | CN(C(=O)CCC(F)(F)F)S(=O)(=O)N1CCN(c2ncnc3[nH]ccc23)CC12CC2 [Example 131, 4,4,4-trifluoro-N-methyl-N-[[5-(7H-pyrrolo[2,3-d]pyrimidin-4-yl)-5,8-diazaspiro[2.5]octan-8-yl]sulfonyl]butanamide]
21 | 100 to 500 | 100 to 500 | > 500 | > 500 | O=S(=O)(N(CCc1ccccc1)CCc1ccccc1)N1CCN(c2ncnc3[nH]ccc23)CC12CC2 [Example 18, 7-(7H-Pyrrolo[2,3-d]pyrimidin-4-yl)-4,7-diaza-spiro[2.5]octane-4-sulfonic acid diphenethylamide]
22 | < 100 | < 100 | 100 to 500 | < 100 | CN(Cc1cccc(C#N)c1)S(=O)(=O)N1CCN(c2ncnc3[nH]ccc23)CC12CC2 [Example 13, 7-(7H-Pyrrolo[2,3-d]pyrimidin-4-yl)-4,7-diaza-spiro[2.5]octane-4-sulfonic acid (3-cyano-benzyl)-methyl-amide]
23 | < 100 | < 100 | 100 to 500 | < 100 | CN(C1CCCC1)S(=O)(=O)N1CCN(c2ncnc3[nH]ccc23)CC12CC2 [Example 61, N-cyclopentyl-N-methyl-5-(7H-pyrrolo[2,3-d]pyrimidin-4-yl)-5,8-diazaspiro[2.5]octane-8-sulfonamide]
24 | < 100 | < 100 | < 100 | < 100 | CN(CC1CC1(F)F)S(=O)(=O)N1CCN(c2ncnc3[nH]ccc23)CC12CC2 (stereo not drawn) [Example 86, N-[(2,2-difluorocyclopropyl)methyl]-N-methyl-5-(7H-pyrrolo[2,3-d]pyrimidin-4-yl)-5,8-diazaspiro[2.5]octane-8-sulfonamide]
